Data as given in paper PMC10879502, “Linking ATP and allosteric sites to achieve superadditive binding with bivalent EGFR kinase inhibitors” (Communications Chemistry, 2024).

Assays:
Experiment in all cases: KINOMEscan
Format in all cases: binding
Settings in all cases: 1 μM
MYLK4 = biological target: T1, MYLK4 (Homo sapiens, UniProt Q86YV6)
T1 construct: purchased Eurofins DiscoverX Corporation

PCTK1 = PCTK1 (Homo sapiens, UniProt Q00536)
FLT3(ITD+D835V) = system: FLT3(ITD+D835V)
HIPK1 = biological target: T2, HIPK1 (Homo sapiens, UniProt Q86Z02)
T2 construct: purchased Eurofins DiscoverX Corporation

TSSK3 = biological target: T3, TSSK3 (Homo sapiens, UniProt Q96PN8)
T3 construct: purchased Eurofins DiscoverX Corporation

LATS2 = biological target: T4, LATS2 (Homo sapiens, UniProt Q9NRM7)
T4 construct: purchased Eurofins DiscoverX Corporation

WNK1 = WNK1 (Homo sapiens, UniProt Q9H4A3)
GSK3A = biological target: T5, GSK3A (Homo sapiens, UniProt P49840)
T5 construct: purchased Eurofins DiscoverX Corporation

NIK = NIK (Homo sapiens, UniProt Q99558)
ROCK2 = ROCK2 (Homo sapiens, UniProt O75116)
TEC = biological target: T6, TEC (Homo sapiens, UniProt P42680)
T6 construct: purchased Eurofins DiscoverX Corporation

STK16 = STK16 (Homo sapiens, UniProt O75716)
EGFR(L858R+T790M) = EGFR(L858R+T790M) (Homo sapiens, UniProt P00533, L858R/T790M)
OSR1 = OSR1 (Homo sapiens, UniProt O95747)
NEK6 = NEK6 (Homo sapiens, UniProt Q9HC98)
ROCK1 = ROCK1 (Homo sapiens, UniProt Q13464)
ACVR1B = ACVR1B (Homo sapiens, UniProt P36896)
YANK2 = YANK2 (Homo sapiens, UniProt Q9NY57)
PRKCQ = PRKCQ (Homo sapiens, UniProt Q04759)
SRPK1 = SRPK1 (Homo sapiens, UniProt Q96SB4)
YANK3 = YANK3 (Homo sapiens, UniProt Q86UX6)
[1] = biological target: RSK3(Kin.Dom.2-C-terminal) (Homo sapiens, UniProt Q15349)
ALK = ALK (Homo sapiens, UniProt Q9UM73)
SRPK2 = SRPK2 (Homo sapiens, UniProt P78362)
LZK = biological target: T7, LZK (Homo sapiens, UniProt O43283)
T7 construct: purchased Eurofins DiscoverX Corporation

MET(M1250T) = biological target: T8, MET(M1250T) (Homo sapiens, UniProt P08581, M1250T)
T8 construct: purchased Eurofins DiscoverX Corporation

TGFBR1 = biological target: T9, TGFBR1 (Homo sapiens, UniProt P36897)
T9 construct: purchased Eurofins DiscoverX Corporation

[2] = biological target: RSK1(Kin.Dom.1-N-terminal) (Homo sapiens, UniProt Q15418)
ALK(L1196M) = ALK(L1196M) (Homo sapiens, UniProt Q9UM73, L1196M)
EPHA8 = EPHA8 (Homo sapiens, UniProt P29322)
CDC2L2 = biological target: T10, CDC2L2 (Homo sapiens, UniProt Q9UQ88)
T10 construct: purchased Eurofins DiscoverX Corporation (KINOMEscan)

DAPK3 = biological target: T11, DAPK3 (Homo sapiens, UniProt O43293)
T11 construct: purchased Eurofins DiscoverX Corporation

CSF1R-autoinhibited = CSF1R-autoinhibited (Homo sapiens, UniProt P07333)
AMPK-alpha1 = AMPK-alpha1 (Homo sapiens, UniProt Q13131)
HPK1 = biological target: T12, HPK1 (Homo sapiens, UniProt Q92918)
T12 construct: purchased Eurofins DiscoverX (KINOMEscan)

FYN = biological target: T13, FYN (Homo sapiens, UniProt P06241)
T13 construct: purchased Eurofins DiscoverX Corporation

[3] = biological target: T14, ABL1(M351T)-phosphorylated (Homo sapiens, UniProt P00519, M351T)
T14 construct: purchased Eurofins DiscoverX Corporation

[4] = biological target: RSK2(Kin.Dom.1-N-terminal) (Homo sapiens, UniProt P51812)
HIPK4 = biological target: T15, HIPK4 (Homo sapiens, UniProt Q8NE63)
T15 construct: purchased Eurofins DiscoverX Corporation

GCN2(Kin.Dom.2+S808G) = biological target: T16, GCN2(Kin.Dom.2+S808G) (Homo sapiens, UniProt Q9P2K8, S808G)
T16 construct: GCN2(Kin.Dom.2+S808G); purchased Eurofins DiscoverX Corporation

SYK = biological target: T17, SYK (Homo sapiens, UniProt P43405)
T17 construct: purchased Eurofins DiscoverX Corporation

CDK7 = CDK7 (Homo sapiens, UniProt P50613)

Chain of OSR1 (O95747 whole entry): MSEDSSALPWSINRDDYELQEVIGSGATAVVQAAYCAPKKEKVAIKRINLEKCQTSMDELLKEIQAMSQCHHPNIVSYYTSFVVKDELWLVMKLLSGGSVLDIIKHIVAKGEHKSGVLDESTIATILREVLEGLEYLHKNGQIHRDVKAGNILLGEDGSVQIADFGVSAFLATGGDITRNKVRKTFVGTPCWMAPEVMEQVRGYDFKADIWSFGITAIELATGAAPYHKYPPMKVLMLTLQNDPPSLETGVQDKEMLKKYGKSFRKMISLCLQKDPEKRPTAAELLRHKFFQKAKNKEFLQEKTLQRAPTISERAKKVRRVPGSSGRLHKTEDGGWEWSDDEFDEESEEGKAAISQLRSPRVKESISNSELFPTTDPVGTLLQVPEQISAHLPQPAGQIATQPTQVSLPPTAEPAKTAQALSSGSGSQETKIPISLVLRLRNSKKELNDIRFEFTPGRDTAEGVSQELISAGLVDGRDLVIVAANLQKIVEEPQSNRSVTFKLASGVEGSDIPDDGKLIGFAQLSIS
T4 sequence (Q9NRM7 whole entry): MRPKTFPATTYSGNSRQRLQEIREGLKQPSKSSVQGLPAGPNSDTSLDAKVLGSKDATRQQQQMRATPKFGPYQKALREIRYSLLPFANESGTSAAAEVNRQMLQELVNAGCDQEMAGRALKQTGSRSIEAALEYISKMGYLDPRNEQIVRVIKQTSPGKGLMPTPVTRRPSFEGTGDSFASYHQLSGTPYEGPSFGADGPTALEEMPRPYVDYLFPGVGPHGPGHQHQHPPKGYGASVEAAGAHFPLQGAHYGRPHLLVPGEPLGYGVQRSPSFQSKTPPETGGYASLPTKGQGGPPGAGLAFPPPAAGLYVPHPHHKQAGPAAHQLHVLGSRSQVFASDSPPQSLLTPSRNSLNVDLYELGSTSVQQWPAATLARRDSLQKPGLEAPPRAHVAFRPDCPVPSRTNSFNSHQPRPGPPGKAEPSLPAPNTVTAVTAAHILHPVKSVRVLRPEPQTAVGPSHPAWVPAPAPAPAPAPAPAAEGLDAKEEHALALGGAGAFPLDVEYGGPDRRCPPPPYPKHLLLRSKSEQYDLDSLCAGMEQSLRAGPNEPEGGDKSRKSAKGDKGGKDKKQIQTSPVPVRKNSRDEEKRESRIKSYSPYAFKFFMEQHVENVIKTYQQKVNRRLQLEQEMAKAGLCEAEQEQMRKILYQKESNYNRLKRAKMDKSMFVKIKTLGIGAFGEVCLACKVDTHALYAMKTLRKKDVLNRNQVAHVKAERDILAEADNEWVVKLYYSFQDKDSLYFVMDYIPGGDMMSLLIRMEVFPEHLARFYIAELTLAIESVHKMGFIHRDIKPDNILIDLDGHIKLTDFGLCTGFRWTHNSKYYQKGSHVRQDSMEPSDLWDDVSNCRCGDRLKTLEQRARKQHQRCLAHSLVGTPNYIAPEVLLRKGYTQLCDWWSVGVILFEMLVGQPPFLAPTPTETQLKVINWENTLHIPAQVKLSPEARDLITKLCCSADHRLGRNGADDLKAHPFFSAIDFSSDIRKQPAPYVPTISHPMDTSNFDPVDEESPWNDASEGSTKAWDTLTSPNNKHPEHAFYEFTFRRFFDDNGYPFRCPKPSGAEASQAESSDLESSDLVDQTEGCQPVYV
T9 sequence (P36897 34-503): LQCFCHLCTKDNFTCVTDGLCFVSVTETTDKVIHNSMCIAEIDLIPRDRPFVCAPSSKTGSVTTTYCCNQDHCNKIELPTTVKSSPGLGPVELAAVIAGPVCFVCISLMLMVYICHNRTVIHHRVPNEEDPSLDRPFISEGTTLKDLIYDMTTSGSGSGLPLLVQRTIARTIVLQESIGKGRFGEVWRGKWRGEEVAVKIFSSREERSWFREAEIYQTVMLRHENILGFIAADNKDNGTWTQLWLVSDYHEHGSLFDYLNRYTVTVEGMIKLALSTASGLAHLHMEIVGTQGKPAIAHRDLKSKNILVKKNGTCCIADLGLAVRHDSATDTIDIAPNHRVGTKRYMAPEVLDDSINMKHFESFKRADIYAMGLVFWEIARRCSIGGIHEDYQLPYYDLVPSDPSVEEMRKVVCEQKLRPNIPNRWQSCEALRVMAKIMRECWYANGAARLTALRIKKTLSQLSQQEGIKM
Chain of ACVR1B (P36896 24-505): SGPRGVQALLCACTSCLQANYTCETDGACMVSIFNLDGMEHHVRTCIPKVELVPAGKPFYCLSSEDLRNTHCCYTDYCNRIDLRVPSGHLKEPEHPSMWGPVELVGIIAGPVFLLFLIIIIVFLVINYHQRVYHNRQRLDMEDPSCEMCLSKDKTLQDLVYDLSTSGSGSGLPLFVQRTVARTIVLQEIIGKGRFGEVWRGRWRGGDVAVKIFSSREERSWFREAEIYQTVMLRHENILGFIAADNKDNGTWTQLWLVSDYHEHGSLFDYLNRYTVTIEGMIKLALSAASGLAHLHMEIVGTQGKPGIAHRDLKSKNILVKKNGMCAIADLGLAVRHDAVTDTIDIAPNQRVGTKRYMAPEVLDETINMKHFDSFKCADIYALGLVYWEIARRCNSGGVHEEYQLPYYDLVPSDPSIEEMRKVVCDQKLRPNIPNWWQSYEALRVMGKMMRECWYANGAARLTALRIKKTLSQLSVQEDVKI
Chain of RSK1(Kin.Dom.1-N-terminal) (Q15418 62-321 limits assumed): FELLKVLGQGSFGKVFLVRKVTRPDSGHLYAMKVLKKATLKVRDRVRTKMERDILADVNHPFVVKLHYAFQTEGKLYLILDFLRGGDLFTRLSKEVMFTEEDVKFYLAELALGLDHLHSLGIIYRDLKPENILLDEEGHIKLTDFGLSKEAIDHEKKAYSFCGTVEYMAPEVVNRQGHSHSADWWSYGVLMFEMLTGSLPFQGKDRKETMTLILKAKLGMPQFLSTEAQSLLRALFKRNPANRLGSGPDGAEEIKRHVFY
Chain of AMPK-alpha1 (Q13131 whole entry): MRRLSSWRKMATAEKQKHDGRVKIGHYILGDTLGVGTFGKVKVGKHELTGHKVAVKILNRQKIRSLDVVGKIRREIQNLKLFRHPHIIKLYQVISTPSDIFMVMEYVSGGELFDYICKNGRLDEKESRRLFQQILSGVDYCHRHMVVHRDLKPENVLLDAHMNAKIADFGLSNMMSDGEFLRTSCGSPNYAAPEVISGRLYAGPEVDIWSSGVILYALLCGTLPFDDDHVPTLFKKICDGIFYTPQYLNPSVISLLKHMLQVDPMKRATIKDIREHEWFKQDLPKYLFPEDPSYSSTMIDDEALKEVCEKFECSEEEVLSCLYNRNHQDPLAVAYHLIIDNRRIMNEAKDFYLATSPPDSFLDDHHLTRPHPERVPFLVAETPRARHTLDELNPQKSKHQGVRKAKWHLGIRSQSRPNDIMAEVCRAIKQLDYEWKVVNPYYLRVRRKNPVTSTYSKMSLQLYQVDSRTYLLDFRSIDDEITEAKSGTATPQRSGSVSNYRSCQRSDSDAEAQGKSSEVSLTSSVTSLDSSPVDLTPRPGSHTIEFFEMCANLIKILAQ
T6 sequence (P42680 whole entry): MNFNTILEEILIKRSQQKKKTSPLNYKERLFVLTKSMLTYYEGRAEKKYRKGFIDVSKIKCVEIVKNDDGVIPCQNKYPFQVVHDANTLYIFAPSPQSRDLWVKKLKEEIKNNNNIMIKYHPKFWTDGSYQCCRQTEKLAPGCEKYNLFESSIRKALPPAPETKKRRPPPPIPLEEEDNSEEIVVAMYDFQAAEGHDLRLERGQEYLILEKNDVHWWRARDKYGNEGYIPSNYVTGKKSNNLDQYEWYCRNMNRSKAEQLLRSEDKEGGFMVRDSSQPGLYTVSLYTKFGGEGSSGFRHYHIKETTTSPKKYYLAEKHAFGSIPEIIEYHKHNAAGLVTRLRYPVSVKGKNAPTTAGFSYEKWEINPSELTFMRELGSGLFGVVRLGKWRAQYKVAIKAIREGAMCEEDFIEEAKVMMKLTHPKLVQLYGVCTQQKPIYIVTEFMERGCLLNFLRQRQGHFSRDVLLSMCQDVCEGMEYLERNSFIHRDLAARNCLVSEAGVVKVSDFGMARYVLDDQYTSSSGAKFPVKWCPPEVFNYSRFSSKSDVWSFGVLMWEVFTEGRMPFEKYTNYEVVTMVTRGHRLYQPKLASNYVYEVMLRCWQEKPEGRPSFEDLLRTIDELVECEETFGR
T1 sequence (Q86YV6 whole entry): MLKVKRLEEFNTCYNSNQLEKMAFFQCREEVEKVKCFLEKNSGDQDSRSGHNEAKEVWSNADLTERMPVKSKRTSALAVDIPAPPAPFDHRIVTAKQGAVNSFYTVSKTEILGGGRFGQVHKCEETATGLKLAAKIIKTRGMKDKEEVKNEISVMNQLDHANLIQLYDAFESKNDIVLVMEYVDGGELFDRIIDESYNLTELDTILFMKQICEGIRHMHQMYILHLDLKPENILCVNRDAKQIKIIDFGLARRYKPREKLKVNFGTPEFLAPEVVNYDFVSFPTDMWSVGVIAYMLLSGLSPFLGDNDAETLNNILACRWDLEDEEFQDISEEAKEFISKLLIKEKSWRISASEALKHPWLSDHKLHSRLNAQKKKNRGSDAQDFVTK
Chain of PCTK1 (Q00536 whole entry): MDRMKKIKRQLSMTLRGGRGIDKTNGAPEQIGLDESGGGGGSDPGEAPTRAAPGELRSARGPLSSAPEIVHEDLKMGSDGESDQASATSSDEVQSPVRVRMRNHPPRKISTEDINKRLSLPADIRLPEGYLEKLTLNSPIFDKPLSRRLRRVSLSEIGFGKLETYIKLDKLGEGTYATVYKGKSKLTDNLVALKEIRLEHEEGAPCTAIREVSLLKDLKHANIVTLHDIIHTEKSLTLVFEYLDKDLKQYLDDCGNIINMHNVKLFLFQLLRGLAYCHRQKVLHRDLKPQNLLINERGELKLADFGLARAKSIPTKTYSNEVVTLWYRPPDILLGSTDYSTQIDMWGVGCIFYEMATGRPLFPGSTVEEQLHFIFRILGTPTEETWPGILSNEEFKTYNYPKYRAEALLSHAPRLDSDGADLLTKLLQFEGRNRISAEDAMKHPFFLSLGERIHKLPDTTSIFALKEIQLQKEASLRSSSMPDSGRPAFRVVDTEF

Q: With `C=CC(=O)Nc1ccc(OC)c(Nc2cc(-c3[nH]c(CC)nc3-c3cccc(NC(=O)c4cccc5c4NC(=O)c4ccccc4N5)c3)ccn2)c1` [Compound 4] as the compound, how does the POC (MYLK4) read?
A: 95% of control

Q: What about the POC (PCTK1) of the same compound?
A: 100% of control

Q: What about the POC (FLT3(ITD+D835V)) of the same compound?
A: 100% of control

Q: And the POC (HIPK1)?
A: 51% of control

Q: And the POC (TSSK3)?
A: 100% of control

Q: What about the POC (LATS2) of the same compound?
A: 62% of control

Q: And the POC (WNK1)?
A: 100% of control

Q: And the POC (GSK3A)?
A: 65% of control

Q: What about the POC (NIK) of the same compound?
A: 100% of control

Q: What about the POC (ROCK2) of the same compound?
A: 94% of control

Q: What about the POC (TEC) of the same compound?
A: 45% of control

Q: What about the POC (STK16) of the same compound?
A: 100% of control

Q: And the POC (EGFR(L858R+T790M))?
A: 8.3% of control

Q: And the POC (OSR1)?
A: 89% of control

Q: What about the POC (NEK6) of the same compound?
A: 100% of control

Q: What about the POC (ROCK1) of the same compound?
A: 100% of control

Q: What about the POC (ACVR1B) of the same compound?
A: 85% of control

Q: What about the POC (YANK2) of the same compound?
A: 63% of control

Q: And the POC (PRKCQ)?
A: 18% of control

Q: What about the POC (SRPK1) of the same compound?
A: 100% of control

Q: And the POC (YANK3)?
A: 96% of control

Q: And the POC [1]?
A: 80% of control

Q: And the POC (ALK)?
A: 100% of control

Q: And the POC (SRPK2)?
A: 100% of control

Q: What about the POC (LZK) of the same compound?
A: 90% of control

Q: What about the POC (MET(M1250T)) of the same compound?
A: 89% of control

Q: What about the POC (TGFBR1) of the same compound?
A: 75% of control

Q: And the POC [2]?
A: 4.7% of control

Q: What about the POC (ALK(L1196M)) of the same compound?
A: 89% of control

Q: What about the POC (EPHA8) of the same compound?
A: 98% of control

Q: And the POC (CDC2L2)?
A: 91% of control

Q: And the POC (DAPK3)?
A: 62% of control

Q: What about the POC (CSF1R-autoinhibited) of the same compound?
A: 69% of control

Q: What about the POC (AMPK-alpha1) of the same compound?
A: 81% of control

Q: And the POC (HPK1)?
A: 45% of control

Q: And the POC (FYN)?
A: 64% of control

Q: And the POC [3]?
A: 67% of control

Q: And the POC [4]?
A: 100% of control

Q: What about the POC (HIPK4) of the same compound?
A: 92% of control

Q: What about the POC (GCN2(Kin.Dom.2+S808G)) of the same compound?
A: 100% of control

Q: And the POC (SYK)?
A: 63% of control

Q: And the POC (CDK7)?
A: 49% of control
